Reference: PubChem BioAssay (NCI)
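Step 1: Grow cells in 96-well plates. Step 2: Expose to compound for 48 hours at 5 concentrations. Step 3: Interpolate endpoints linearly; if unreached, use highest concentration. Here, GI50 denotes the concentration required for 50% inhibition of growth. TGI marks complete inhibition of growth.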

Experiments:
Test in all cases: NCI anticancer screen, dose series, 48 h
HOP-62 NSCLC = system: HOP-62 NSCLC
TK-10 renal = system: TK-10 renal
OVCAR-3 ovarian = system: OVCAR-3 ovarian
SK-MEL-2 melanoma = system: SK-MEL-2 melanoma
HCC-2998 colon = system: HCC-2998 colon
U251 CNS = system: U251 CNS
CCRF-CEM leukemia = system: CCRF-CEM leukemia
EKVX NSCLC = system: EKVX NSCLC
T-47D breast = system: T-47D breast
HS 578T breast = system: HS 578T breast

SMILES	GI50 (HOP-62 NSCLC) [µM]	TGI (HOP-62 NSCLC) [µM]	GI50 (TK-10 renal) [µM]	TGI (TK-10 renal) [µM]	GI50 (OVCAR-3 ovarian) [µM]	TGI (OVCAR-3 ovarian) [µM]	GI50 (SK-MEL-2 melanoma) [µM]	TGI (SK-MEL-2 melanoma) [µM]	GI50 (HCC-2998 colon) [µM]	TGI (HCC-2998 colon) [µM]	GI50 (U251 CNS) [µM]	TGI (U251 CNS) [µM]	GI50 (CCRF-CEM leukemia) [µM]	TGI (CCRF-CEM leukemia) [µM]	GI50 (EKVX NSCLC) [µM]	TGI (EKVX NSCLC) [µM]	GI50 (T-47D breast) [µM]	TGI (T-47D breast) [µM]	GI50 (HS 578T breast) [µM]	TGI (HS 578T breast) [µM]
N.N.N.N.N.NC(=O)c1nn[n-]n1.[Cl-].[Co+3]	> 100	> 100	> 100	> 100	> 100	> 100	> 100	> 100	> 100	> 100	> 100	> 100	> 100	> 100	> 100	> 100				
COc1cc(Br)c(C=Nc2cccc3cc(OC)c(OC)cc23)cc1OC		> 100		> 100		80.8				> 100		> 100		> 100		> 100				
O=C1CC(O)CC(=O)C1=C(O)CCCCCCCCCCc1ccccc1 (stereo not given)		> 100		> 100		> 100		77.1		> 100		> 100		> 100		> 100				
O=C(O)CCN(CCCCN(CCC(=O)O)CCC(=O)O)CCC(=O)O		> 100		> 100		> 100		> 100		> 100		> 100		> 100		> 100				
COc1ccc(C23C(=O)c4ccccc4N2O[C@H]2C(=O)N(c4ccccc4)C(=O)[C@H]23)cc1 (stereo not given in full)		> 100		> 100		> 100		> 100		> 100		> 100		> 100		> 100				
N.N.N.N.[Co+3].[N-]=[N+]=[N-].[N-]=[N+]=[N-].[N-]=[N+]=[N-]	> 100	> 100	> 100	> 100	> 100	> 100	> 100	> 100	> 100	> 100	> 100	> 100	61.1	> 100	> 100	> 100				
O=C1N(C2CCCCC2)CC12CCCCC2		> 100		> 100				> 100		> 100		> 100		> 100		> 100				
Cc1nnn[n-]1.N.N.N.N.N.[Cl-].[Co+3]	> 100	> 100	> 100	> 100	> 100	> 100	> 100	> 100	> 100	> 100	> 100	> 100	> 100	> 100	> 100	> 100				
CC1(C)O[C@H]2[C@H](O)C[C@](O)(CO)C[C@H]2O1				> 100		> 100		> 100				> 100				> 100				
O=C1C(Cl)=C(Nc2cccc(F)c2)C(=O)N1Cc1ccc(Cl)cc1	0.974	7.19	5.7	19.3	1.19	6.84	5.96	> 28.4	0.935	4.88	0.337	> 32	0.118	11.1			3.57	27.7	2.86	9.28
COC(=O)c1ccc(-c2nc3cc(Cl)c(Cl)cc3nc2C#N)cc1	82.4	> 100	> 100	> 100	> 100	> 100	> 100	> 100	> 100	> 100	42	> 100	31.6	> 100	> 100	> 100	> 100	> 100		
O=C(c1ccccc1)c1ccccc1-c1ccccc1	5.38	> 100	6.28	> 100	1.72	4.55	1.65	9.48	6.14	34.5	4.21	46.2			4.22	> 100	6.08	> 100	1.58	10.2
NC(=O)C(=O)N/N=C1\C(=O)N(c2ccc(Cl)cc2Cl)C(=O)C1C(=O)Nc1ccc(Cl)cc1Cl (stereo not given)		> 100		> 100		> 100		> 100		> 100		> 100		> 100		> 100				
O=C(O)CN(CC(=O)O)Cc1cc(C#Cc2ccc(C#Cc3ccccc3)cc2)cc(CN(CC(=O)O)CC(=O)O)n1		71		> 86.2		> 39.9		> 73.7		> 72.4		57.6		> 64.9		> 86.8				> 100
CCCCCCCCNc1cc2c3c(c1)CCCN3CCC2	4.04	18.3	5.69	22	1.55	5.81	3.06	12.7	5.41	26.8	0.39	15.1	1.63	> 100	0.559	15.3	1.34	21		
O=[N+]([O-])c1ccc(C[P+](c2ccccc2)(c2ccccc2)c2ccccc2)cc1		> 100		> 100		> 100		> 100		> 100		> 100		> 100		> 100				
CC1(C)C2CCC13C(=O)C1OC3(C2)C2C(=O)c3cc4ccccc4cc3C(=O)C12 (stereo not given)	7.64	45.3	12.9	44.5			42.2	> 100	8.53	> 100	15.1	34.4	3.42	25.7			4.68	50.5	53.7	> 100
COC(=O)NC(=O)c1cn(C2OC(CO)C(O)C2O)c(=O)[nH]c1=O (stereo not given)		> 100		> 100		> 100		> 100		> 100		> 100								
